Literature values, collected in US12290506B2, “Compositions and formulations for use of a PK inhibitor for the prevention, treatment, and improvement of skin diseases, conditions, and disorders” (DermBiont, Inc., priority 2022, dated 2025).

Test system: UV induced neo-melanogenesis
Conditions: topical application, guinea pig model

bisindolylmaleimide
UV induced neo-melanogenesis: inhibit UV induced neo-melanogenesis
